Reference: ChEMBL document CHEMBL1149192, “Mechanism of inactivation of beta-lactamases by novel 6-methylidene penems elucidated using electrospray ionization mass spectrometry” (J Med Chem, 2004)

Key:
[1] = biological target: Metallo-beta-lactamase type 2 (Bacteroides fragilis, UniProt P25910); assay: In vitro inhibitory activity against Class B (CCRA) beta-Lactamases
IMI-1 = IMI-1 (Enterobacter cloacae, UniProt Q46991); assay: In vitro inhibitory activity against Class A (Imi-1) beta-Lactamases
Chain of IMI-1 (Q46991 whole entry): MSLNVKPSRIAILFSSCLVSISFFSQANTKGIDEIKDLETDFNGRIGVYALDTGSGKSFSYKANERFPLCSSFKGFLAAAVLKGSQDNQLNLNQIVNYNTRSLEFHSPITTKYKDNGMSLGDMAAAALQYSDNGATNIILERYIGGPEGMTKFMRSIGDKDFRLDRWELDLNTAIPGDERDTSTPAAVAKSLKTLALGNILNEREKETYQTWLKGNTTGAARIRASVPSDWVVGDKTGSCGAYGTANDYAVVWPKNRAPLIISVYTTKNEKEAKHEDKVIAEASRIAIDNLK

Beta-lactamase TEM = Beta-lactamase TEM (Escherichia coli, UniProt P62593); assay: In vitro inhibitory activity against Class A (TEM-1) beta-Lactamases
Chain of Beta-lactamase TEM (P62593 whole entry): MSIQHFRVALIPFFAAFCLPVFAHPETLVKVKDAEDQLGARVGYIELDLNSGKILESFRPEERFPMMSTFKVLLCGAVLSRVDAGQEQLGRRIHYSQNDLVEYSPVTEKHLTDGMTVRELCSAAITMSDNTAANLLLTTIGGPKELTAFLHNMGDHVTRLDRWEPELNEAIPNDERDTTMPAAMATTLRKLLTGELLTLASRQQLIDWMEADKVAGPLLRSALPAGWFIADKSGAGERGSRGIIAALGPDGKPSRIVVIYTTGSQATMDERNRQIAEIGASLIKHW

Beta-lactamase = Beta-lactamase (Escherichia coli K-12, UniProt P00811)
Chain of Beta-lactamase (P00811 whole entry): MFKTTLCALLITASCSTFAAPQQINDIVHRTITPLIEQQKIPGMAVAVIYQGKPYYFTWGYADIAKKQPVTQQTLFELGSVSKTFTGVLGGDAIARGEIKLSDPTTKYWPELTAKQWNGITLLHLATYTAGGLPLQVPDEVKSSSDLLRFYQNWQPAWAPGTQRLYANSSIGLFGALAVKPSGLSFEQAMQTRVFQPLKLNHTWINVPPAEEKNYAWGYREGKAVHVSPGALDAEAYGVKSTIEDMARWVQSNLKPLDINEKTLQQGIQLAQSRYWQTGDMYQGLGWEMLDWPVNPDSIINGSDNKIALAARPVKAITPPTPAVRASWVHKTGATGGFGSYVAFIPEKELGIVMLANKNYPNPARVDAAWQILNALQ
Description: In vitro inhibitory activity against Class C (Amp-C) beta-Lactamases

Chain of Metallo-beta-lactamase type 2 (P25910 whole entry): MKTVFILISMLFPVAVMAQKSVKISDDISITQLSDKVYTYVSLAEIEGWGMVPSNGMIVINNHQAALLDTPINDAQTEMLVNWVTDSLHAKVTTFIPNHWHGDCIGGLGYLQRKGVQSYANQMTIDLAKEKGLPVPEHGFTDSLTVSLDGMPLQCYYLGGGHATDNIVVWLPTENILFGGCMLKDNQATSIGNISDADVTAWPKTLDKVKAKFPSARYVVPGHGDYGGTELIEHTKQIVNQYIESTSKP

Q: How did the IC50 [1] turn out when `O=C(O)C1=CS[C@@H]2/C(=C\c3cnc4n3CCOC4)C(=O)N12` was run?
A: The IC50 was 66 nM.

Q: What about the IC50 (IMI-1) of the same compound?
A: The IC50 was 8 nM.

Q: What about the IC50 (Beta-lactamase TEM) of the same compound?
A: The IC50 was 0.4 nM.

Q: And the IC50 (Beta-lactamase)?
A: The IC50 was 5 nM.

Q: For `O=C(O)C1=CS[C@@H]2/C(=C\c3cc4n(n3)CCC4)C(=O)N12`, which IC50 (Beta-lactamase TEM) is on record?
A: Its IC50 is 1 nM.

Q: What about the IC50 (Beta-lactamase) of the same compound?
A: The IC50 was 2 nM.

Q: With `O=C(O)C1=CS[C@@H]2/C(=C\c3cnc4n3CCNC4)C(=O)N12` as the compound, how does the IC50 [1] read?
A: Its IC50 is 320 nM.

Q: And the IC50 (IMI-1)?
A: Its IC50 is 28 nM.

Q: What about the IC50 (Beta-lactamase TEM) of the same compound?
A: Its IC50 is 5 nM.

Q: And the IC50 (Beta-lactamase)?
A: Its IC50 is 6 nM.

Q: With `O=C(O)C1=CS[C@@H]2/C(=C\c3cn4c5c(sc4n3)CCC5)C(=O)N12` as the compound, how does the IC50 (Beta-lactamase TEM) read?
A: The IC50 was 1 nM.

Q: And the IC50 (Beta-lactamase)?
A: The IC50 was 2 nM.
